Source: the NIST ThermoML archive (doi:10.1021/acs.jced.7b00242)
Numbers after ± are expanded uncertainties.

Tests used:
[1] = refractive index (Na D-line) (dimensionless)
[2] = 293.15 K; 101 kPa; Liquid; Vibrating tube method
[3] = 298.15 K; 101 kPa; Liquid; Concentric cylinders viscometry
[4] = 298.15 K; 101 kPa; Liquid; Vibrating tube method
[5] = 298.15 K; Liquid; Ring tensiometer
[6] = 303.15 K; 101 kPa; Liquid; Concentric cylinders viscometry
[7] = 303.15 K; 101 kPa; Liquid; Vibrating tube method
[8] = 303.15 K; Liquid; Ring tensiometer
[9] = 313.15 K; 101 kPa; Liquid; Concentric cylinders viscometry
[10] = 313.15 K; 101 kPa; Liquid; Vibrating tube method
[11] = 313.15 K; Liquid; Ring tensiometer
[12] = 323.15 K; 101 kPa; Liquid; Concentric cylinders viscometry
[13] = 323.15 K; 101 kPa; Liquid; Vibrating tube method
[14] = 323.15 K; Liquid; Ring tensiometer
[15] = 333.15 K; 101 kPa; Liquid; Concentric cylinders viscometry
[16] = 333.15 K; 101 kPa; Liquid; Vibrating tube method
[17] = 333.15 K; Liquid; Ring tensiometer
[18] = 343.15 K; 101 kPa; Liquid; Concentric cylinders viscometry
[19] = 343.15 K; 101 kPa; Liquid; Vibrating tube method
[20] = 343.15 K; Liquid; Ring tensiometer
[21] = 353.15 K; 101 kPa; Liquid; Concentric cylinders viscometry
[22] = 353.15 K; 101 kPa; Liquid; Vibrating tube method
[23] = 353.15 K; Liquid; Ring tensiometer
[24] = 363.15 K; 101 kPa; Liquid; Concentric cylinders viscometry
[25] = 363.15 K; 101 kPa; Liquid; Vibrating tube method
[26] = 363.15 K; Liquid; Ring tensiometer
[27] = 293.15 K; 101 kPa; Liquid; Standard Abbe refractometry
[28] = 298.15 K; 101 kPa; Liquid; Standard Abbe refractometry
[29] = 303.15 K; 101 kPa; Liquid; Standard Abbe refractometry
[30] = 313.15 K; 101 kPa; Liquid; Standard Abbe refractometry
[31] = 323.15 K; 101 kPa; Liquid; Standard Abbe refractometry
[32] = 333.15 K; 101 kPa; Liquid; Standard Abbe refractometry
[33] = 343.15 K; 101 kPa; Liquid; Standard Abbe refractometry
[34] = 353.15 K; 101 kPa; Liquid; Standard Abbe refractometry
[35] = 363.15 K; 101 kPa; Liquid; Standard Abbe refractometry

Work on `CCCCCCCCCCCCn1cc[n+](C)c1.O=S(=O)([N-]S(=O)(=O)C(F)(F)F)C(F)(F)F` yielded a mass density [2] of 1253.1 ± 20 kg/m3, a viscosity [3] of 130.5 ± 21 mPa·s and a mass density [4] of 1248 ± 20 kg/m3. The surface tension liquid-gas [5] was 28.1 ± 0.9 mN/m, the viscosity [6] was 101.1 ± 16 mPa·s and the mass density [7] was 1242 ± 20 kg/m3. The surface tension liquid-gas [8] was 27.7 ± 0.9 mN/m, the viscosity [9] was 63.54 ± 10 mPa·s and the mass density [10] was 1232.2 ± 20 kg/m3. It also gave a surface tension liquid-gas [11] of 26.9 ± 0.9 mN/m, a viscosity [12] of 42.41 ± 6.8 mPa·s and a mass density [13] of 1224.1 ± 20 kg/m3. The surface tension liquid-gas [14] was 25.9 ± 0.9 mN/m, the viscosity [15] was 29.67 ± 4.8 mPa·s and the mass density [16] was 1216 ± 20 kg/m3. The surface tension liquid-gas [17] was 24.9 ± 0.9 mN/m, the viscosity [18] was 21.63 ± 3.5 mPa·s and the mass density [19] was 1208.1 ± 20 kg/m3. The surface tension liquid-gas [20] was 24.1 ± 0.9 mN/m, the viscosity [21] was 16.31 ± 2.6 mPa·s and the mass density [22] was 1200 ± 20 kg/m3. For the same molecule, the surface tension liquid-gas [23] was 23.3 ± 0.9 mN/m, the viscosity [24] was 12.65 ± 2 mPa·s and the mass density [25] was 1191.8 ± 20 kg/m3. For the same molecule, the surface tension liquid-gas [26] was 22.5 ± 0.9 mN/m, the Normal melting temperature (Crystal; DTA) was 22.50 ± 1.1 °C and the refractive index [1, 27] was 1.4385 ± 0.004. For the same molecule, the refractive index [1, 28] was 1.437 ± 0.004, the refractive index [1, 29] was 1.4354 ± 0.004 and the refractive index [1, 30] was 1.4324 ± 0.004. For the same molecule, the refractive index [1, 31] was 1.4295 ± 0.004, the refractive index [1, 32] was 1.4265 ± 0.004 and the refractive index [1, 33] was 1.4237 ± 0.004. The refractive index [1, 34] was 1.4209 ± 0.004 and the refractive index [1, 35] was 1.4179 ± 0.004.
In the case of `CCCCCCCCCCn1cc[n+](C)c1.O=S(=O)([N-]S(=O)(=O)C(F)(F)F)C(F)(F)F`, the mass density (273.15 K; 101 kPa; Liquid; Vibrating tube method) is reported as 1292.7 ± 20 kg/m3, the mass density (289.15 K; 101 kPa; Liquid; Vibrating tube method) is reported as 1287.3 ± 20 kg/m3 and the viscosity (293.15 K; 101 kPa; Liquid; Concentric cylinders viscometry) is reported as 139.9 ± 22 mPa·s. For the same molecule, the mass density [2] was 1282.3 ± 20 kg/m3, the viscosity [3] was 101.2 ± 16 mPa·s and the mass density [4] was 1278.4 ± 20 kg/m3. It also gave a surface tension liquid-gas [5] of 29.8 ± 0.9 mN/m, a viscosity [6] of 79.17 ± 13 mPa·s and a mass density [7] of 1274.2 ± 20 kg/m3. The surface tension liquid-gas [8] was 29.2 ± 0.9 mN/m, the viscosity [9] was 50.86 ± 8.1 mPa·s and the mass density [10] was 1265.3 ± 20 kg/m3. It also gave a surface tension liquid-gas [11] of 28.3 ± 0.9 mN/m, a viscosity [12] of 34.51 ± 5.5 mPa·s and a mass density [13] of 1256.3 ± 20 kg/m3. For the same molecule, the surface tension liquid-gas [14] was 27.5 ± 0.9 mN/m, the viscosity [15] was 24.5 ± 3.9 mPa·s and the mass density [16] was 1247.5 ± 20 kg/m3. The surface tension liquid-gas [17] was 26.9 ± 0.9 mN/m, the viscosity [18] was 18.08 ± 2.9 mPa·s and the mass density [19] was 1239.4 ± 20 kg/m3. For the same molecule, the surface tension liquid-gas [20] was 26.3 ± 0.9 mN/m, the viscosity [21] was 13.78 ± 2.2 mPa·s and the mass density [22] was 1230.6 ± 20 kg/m3. For the same molecule, the surface tension liquid-gas [23] was 25.7 ± 0.9 mN/m, the viscosity [24] was 10.79 ± 1.7 mPa·s and the mass density [25] was 1222.3 ± 20 kg/m3. For the same molecule, the surface tension liquid-gas [26] was 25.2 ± 0.9 mN/m, the Normal melting temperature (Crystal; DTA) was 3.04 ± 1.1 °C and the refractive index [1, 27] was 1.4366 ± 0.004. It also gave a refractive index [1, 28] of 1.4351 ± 0.004, a refractive index [1, 29] of 1.4336 ± 0.004 and a refractive index [1, 30] of 1.4306 ± 0.004. For the same molecule, the refractive index [1, 31] was 1.4278 ± 0.004, the refractive index [1, 32] was 1.425 ± 0.004 and the refractive index [1, 33] was 1.4222 ± 0.004. It also gave a refractive index [1, 34] of 1.4194 ± 0.004 and a refractive index [1, 35] of 1.4166 ± 0.004.
In the case of `CCCCCCCCCCCCCCn1cc[n+](C)c1.O=S(=O)([N-]S(=O)(=O)C(F)(F)F)C(F)(F)F`, the mass density [7] is reported as 1197.1 ± 20 kg/m3, the surface tension liquid-gas (303.15 K; Metastable liquid; Ring tensiometer) is reported as 26.3 ± 0.9 mN/m and the viscosity [9] is reported as 83.54 ± 13 mPa·s. The mass density [10] was 1187.6 ± 20 kg/m3, the surface tension liquid-gas (313.15 K; Ring tensiometer; Liquid) was 25.3 ± 0.9 mN/m and the viscosity [12] was 54.36 ± 8.7 mPa·s. For the same molecule, the mass density [13] was 1180 ± 20 kg/m3, the surface tension liquid-gas (323.15 K; Ring tensiometer; Liquid) was 24.5 ± 0.9 mN/m and the viscosity [15] was 37.21 ± 6 mPa·s. For the same molecule, the mass density [16] was 1171.3 ± 20 kg/m3, the surface tension liquid-gas (333.15 K; Ring tensiometer; Liquid) was 23.7 ± 0.9 mN/m and the viscosity [18] was 26.58 ± 4.3 mPa·s. For the same molecule, the mass density [19] was 1163.1 ± 20 kg/m3, the surface tension liquid-gas (343.15 K; Ring tensiometer; Liquid) was 22.9 ± 0.9 mN/m and the viscosity [21] was 19.68 ± 3.1 mPa·s. The mass density [22] was 1154.6 ± 20 kg/m3, the surface tension liquid-gas (353.15 K; Ring tensiometer; Liquid) was 22.3 ± 0.9 mN/m and the viscosity [24] was 15.04 ± 2.4 mPa·s. It also gave a mass density [25] of 1146.5 ± 20 kg/m3, a surface tension liquid-gas (363.15 K; Ring tensiometer; Liquid) of 21.7 ± 0.9 mN/m and a Normal melting temperature (Crystal; DTA) of 34.4 ± 1.1 °C. The refractive index ([1]; 303.15 K; 101 kPa; Metastable liquid; Standard Abbe refractometry) was 1.4384 ± 0.004, the refractive index ([1]; 313.15 K; 101 kPa; Standard Abbe refractometry; Liquid) was 1.4352 ± 0.004 and the refractive index ([1]; 323.15 K; 101 kPa; Standard Abbe refractometry; Liquid) was 1.4322 ± 0.004. It also gave a refractive index ([1]; 333.15 K; 101 kPa; Standard Abbe refractometry; Liquid) of 1.4292 ± 0.004, a refractive index ([1]; 343.15 K; 101 kPa; Standard Abbe refractometry; Liquid) of 1.4262 ± 0.004 and a refractive index ([1]; 353.15 K; 101 kPa; Standard Abbe refractometry; Liquid) of 1.4233 ± 0.004. It also gave a refractive index ([1]; 363.15 K; 101 kPa; Standard Abbe refractometry; Liquid) of 1.4204 ± 0.004.
In the case of `CCCCCCCCCCCC[n+]1ccn(C)c1.[Cl-]` [1-dodecyl-3-methylimidazolium chloride], the Normal melting temperature (Crystal; DTA) is reported as 96.22 ± 1.1 °C.
For `CCCCCCCCCCn1cc[n+](C)c1.[Cl-]` [1-decyl-3-methylimidazolium chloride], the mass density [4] was 984 ± 20 kg/m3, the mass density [7] was 979.7 ± 20 kg/m3 and the surface tension liquid-gas [8] was 34 ± 0.9 mN/m. For the same molecule, the viscosity (313.15 K; 100 kPa; Liquid; Concentric cylinders viscometry) was 3716 ± 630 mPa·s, the mass density [10] was 974.4 ± 20 kg/m3 and the surface tension liquid-gas [11] was 30.2 ± 0.9 mN/m. The viscosity (323.15 K; 100 kPa; Liquid; Concentric cylinders viscometry) was 1613 ± 270 mPa·s, the mass density [13] was 968.1 ± 20 kg/m3 and the surface tension liquid-gas [14] was 28.4 ± 0.9 mN/m. It also gave a viscosity (333.15 K; 100 kPa; Liquid; Concentric cylinders viscometry) of 778.9 ± 130 mPa·s, a mass density [16] of 962.4 ± 20 kg/m3 and a surface tension liquid-gas [17] of 27.8 ± 0.9 mN/m. For the same molecule, the viscosity (343.15 K; 100 kPa; Liquid; Concentric cylinders viscometry) was 411.2 ± 67 mPa·s, the mass density [19] was 956.4 ± 20 kg/m3 and the surface tension liquid-gas [20] was 27 ± 0.9 mN/m. For the same molecule, the viscosity (353.15 K; 100 kPa; Liquid; Concentric cylinders viscometry) was 233.7 ± 38 mPa·s, the mass density [22] was 950.7 ± 20 kg/m3 and the surface tension liquid-gas [23] was 26.2 ± 0.9 mN/m. For the same molecule, the viscosity (363.15 K; 100 kPa; Liquid; Concentric cylinders viscometry) was 141.7 ± 23 mPa·s, the mass density [25] was 943.8 ± 20 kg/m3 and the surface tension liquid-gas [26] was 25.5 ± 0.9 mN/m. For the same molecule, the Normal melting temperature (Crystal; DTA) was 28.96 ± 1.1 °C, the refractive index ([1]; 293.15 K; 100 kPa; Liquid; Standard Abbe refractometry) was 1.5002 ± 0.0048 and the refractive index ([1]; 298.15 K; 100 kPa; Liquid; Standard Abbe refractometry) was 1.4988 ± 0.0054. It also gave a refractive index ([1]; 303.15 K; 100 kPa; Liquid; Standard Abbe refractometry) of 1.4972 ± 0.0058, a refractive index ([1]; 313.15 K; 100 kPa; Liquid; Standard Abbe refractometry) of 1.4937 ± 0.0064 and a refractive index ([1]; 323.15 K; 100 kPa; Liquid; Standard Abbe refractometry) of 1.4897 ± 0.0064. It also gave a refractive index ([1]; 333.15 K; 100 kPa; Liquid; Standard Abbe refractometry) of 1.4864 ± 0.0068, a refractive index ([1]; 343.15 K; 100 kPa; Liquid; Standard Abbe refractometry) of 1.4834 ± 0.0074 and a refractive index ([1]; 353.15 K; 100 kPa; Liquid; Standard Abbe refractometry) of 1.4806 ± 0.0078. For the same molecule, the refractive index ([1]; 363.15 K; 100 kPa; Liquid; Standard Abbe refractometry) was 1.4788 ± 0.009.
